Data reported in patent US20110294772A1, “USE OF CYCLOSQUARAMIDE COMPOUNDS AS ANTI-TUMOUR AGENTS” (priority 2008, published 2011).

Legend:
[1] = test system: UO-31 (Renal); assay: NCI60 panel IC50; format: cell-based; details: Homo sapiens
Procedure: (§1) On the other hand, the values of IC50 were determined in the panel of NCl60 cell lines for compound 10.
(§2) A total of 2 independent experiments were carried out with assays in triplicate for the compound and cell line. All those assays where an IC50 value was not reached in the highest concentration of 1E-05 M are represented by “>1E-05”. In these cases, the standard deviation cannot be calculated and for that reason it is calculated as “-”.

[2] = test system: M-14 (Melanoma); assay: NCI60 panel IC50; format: cell-based; details: Homo sapiens, M14
Procedure: as §1, §2

[3] = test system: DAUDI (Leukaemia); assay: NCI60 panel IC50; format: cell-based; details: Homo sapiens
Procedure: as §1, §2

[4] = test system: SK-MEL-2 (Melanoma); assay: NCI60 panel IC50; format: cell-based; details: Homo sapiens
Procedure: as §1, §2

[5] = test system: ACHN (Renal); assay: NCI60 panel IC50; format: cell-based; details: Homo sapiens
Procedure: as §1, §2

[6] = test system: MALME-3M (Melanoma); assay: NCI60 panel IC50; format: cell-based; details: Homo sapiens
Procedure: as §1, §2

[7] = test system: DMS-114 (Lung); assay: NCI60 panel IC50; format: cell-based; details: Homo sapiens
Procedure: as §1, §2

[8] = test system: SN 12C (Renal); assay: NCI60 panel IC50; format: cell-based; details: Homo sapiens, SN12C
Procedure: as §1, §2

[9] = test system: BT-549 (Breast); assay: NCI60 panel IC50; format: cell-based; details: Homo sapiens
Procedure: as §1, §2

[10] = test system: SF-268 (CNS); assay: NCI60 panel IC50; format: cell-based; details: Homo sapiens, 2 experiments in triplicate
Procedure: as §1, §2

[11] = test system: NCI-H226 (Lung); assay: NCI60 panel IC50; format: cell-based; details: Homo sapiens
Procedure: as §1, §2

[12] = test system: Hs-578-T (Breast); assay: NCI60 panel IC50; format: cell-based; details: Homo sapiens
Procedure: as §1, §2

[13] = test system: U-251 (CNS); assay: NCI60 panel IC50; format: cell-based; details: Homo sapiens
Procedure: as §1, §2

[14] = test system: MDA-MB-435 S (Breast); assay: NCI60 panel IC50; format: cell-based; details: Homo sapiens
Procedure: as §1, §2

[15] = test system: NCI-H23 (Lung); assay: NCI60 panel IC50; format: cell-based; details: Homo sapiens
Procedure: as §1, §2

[16] = test system: A-498 (Renal); assay: NCI60 panel IC50; format: cell-based; details: Homo sapiens, A498
Procedure: as §1, §2

[17] = test system: IGR-OVI (Ovarian); assay: NCI60 panel IC50; format: cell-based; details: Homo sapiens
Procedure: as §1, §2

[18] = test system: MDA-MB-468 (Breast); assay: NCI60 panel IC50; format: cell-based; details: Homo sapiens
Procedure: as §1, §2

[19] = test system: Sw-620 (Colon); assay: NCI60 panel IC50; format: cell-based; details: Homo sapiens
Procedure: as §1, §2

[20] = test system: CCRF-CEM (Leukaemia); assay: NCI60 panel IC50; format: cell-based; details: Homo sapiens
Procedure: as §1, §2

[21] = test system: UACC-62 (Melanoma); assay: NCI60 panel IC50; format: cell-based; details: Homo sapiens
Procedure: as §1, §2

[22] = test system: SNB-19 (CNS); assay: NCI60 panel IC50; format: cell-based; details: Homo sapiens
Procedure: as §1, §2

[23] = test system: HI-60 (Leukaemia); assay: NCI60 panel IC50; format: cell-based; details: Homo sapiens
Procedure: as §1, §2

[24] = test system: HOP-62 (Lung); assay: NCI60 panel IC50; format: cell-based; details: Homo sapiens
Procedure: as §1, §2

[25] = test system: RPMI-8226 (Leukaemia); assay: NCI60 panel IC50; format: cell-based; details: Homo sapiens
Procedure: as §1, §2

[26] = test system: HOP-92 (Lung); assay: NCI60 panel IC50; format: cell-based; details: Homo sapiens
Procedure: as §1, §2

[27] = test system: DU-145 (Prostate); assay: NCI60 panel IC50; format: cell-based; details: Homo sapiens
Procedure: as §1, §2

[28] = test system: A549 (Lung); assay: NCI60 panel IC50; format: cell-based; details: Homo sapiens
Procedure: as §1, §2

[29] = test system: SW-480 (Colon); assay: NCI60 panel IC50; format: cell-based; details: Homo sapiens, SW480
Procedure: as §1, §2

[30] = test system: COLO-205 (Colon); assay: NCI60 panel IC50; format: cell-based; details: Homo sapiens
Procedure: as §1, §2

[31] = test system: K-562 (Leukaemia); assay: NCI60 panel IC50; format: cell-based; details: Homo sapiens, K562
Procedure: as §1, §2

[32] = test system: Hut; assay: cell viability assay; format: cell-based, human; details: Hut T-cell lymphoma, 72 h, with respect to untreated control cells
[33] = test system: U87; assay: cell viability assay; format: cell-based, human; details: U87 glioblastoma, 72 h, with respect to untreated control cells
[34] = test system: Jeko-1; assay: cell viability assay; format: cell-based, human
Procedure: The IC50 in cell viability assays were determined for some of the macrocycles prepared in Jeko-1 (B-cell lymphoma (MCL) type cells. With a total incubation period of 48 h.

[35] = test system: panel of 210 kinases representative of the human kinome; assay: in vitro kinase panel; format: biochemical; details: 25 kinases selected for IC50, in vitro assays
Procedure: Specifically, against a panel of 210 kinases representative of the human kinome, the compounds tested inhibited by […] the activity of 25 of them in in Vitro assays (Table 1).
The IC50 was determined for the most sensitive kinases to compound 10, obtaining values for said parameter, largely in the micromolar range. For this purpose, the 25 kinases inhibited more than 80% by the compound in in vitro assays were selected.

[36] = test system: JVM-2; assay: cell viability assay; format: cell-based, human; details: JVM-2 B-cell lymphoma (MCL), 48 h, with respect to untreated control cells
[37] = test system: Rec-1; assay: cell viability assay; format: cell-based, human; details: Rec-1 B-cell lymphoma (MCL), 48 h, with respect to untreated control cells
[38] = test system: U251; assay: cell viability assay; format: cell-based, human; details: U251 glioblastoma, 72 h, with respect to untreated control cells
[39] = test system: panel of NCl60 cell lines; assay: IC50 in NCI60 panel (overall); format: cell-based; details: Homo sapiens, general order, read-out: antitumor activity (IC50) in general
Procedure: as §1, §2

SMILES: CN1CCCNc2c(c(=O)c2=O)NCCCN(C)CCCNc2c(c(=O)c2=O)NCCCN(C)CCCNc2c(c(=O)c2=O)NCCCN(C)CCCNc2c(c(=O)c2=O)NCCCN(C)CCCNc2c(c(=O)c2=O)NCCC1 [Compound 10]
- IC50 [1]: 2.17 µM
- IC50 [2]: 7.21 µM
- IC50 [3]: 1.99 µM
- IC50 [4]: 3.29 µM
- IC50 [5]: 3.25 µM
- IC50 [6]: 9.28 µM
- IC50 [7]: 8.72 µM
- IC50 [8]: 4.12 µM
- IC50 [9]: 2.21 µM
- IC50 [10]: 5.61 µM
- IC50 [11]: 1.53 µM
- IC50 [12]: 7.79 µM
- IC50 [13]: 7.86 µM
- IC50 [14]: 3.66 µM
- IC50 [15]: 3.02 µM
- IC50 [16]: 7.5 µM
- IC50 [17]: 2.38 µM
- IC50 [18]: 2.37 µM
- IC50 [19]: 9.41 µM
- IC50 [20]: 2.09 µM
- IC50 [21]: 1.34 µM
- IC50 [22]: 1.81 µM
- IC50 [23]: 2.41 µM
- IC50 [24]: 6.37 µM
- IC50 [25]: 8.97 µM
- IC50 [26]: 3.53 µM
- IC50 [27]: 1.8 µM
- IC50 [28]: 5.29 µM
- IC50 [29]: 1.8 µM
- IC50 [30]: 3.23 µM
- IC50 [31]: 4.07 µM
- % Cell viability [32]: 60%
- % Cell viability [33]: 25%
- IC50 ([34]; Homo sapiens, JeKo-1, 48 h, cell viability, total incubation period 48 h, read-out: IC50 (μM) against Jeko-1 cells): 30.7 µM
- % Cell viability ([34]; Jeko-1 B-cell lymphoma (MCL), 48 h, with respect to untreated control cells): 46%
- inhibition of the 25 most sensitive kinases [35]: more than 80%
- % Cell viability [36]: 24%
- % Cell viability [37]: 44%
- % Cell viability [38]: 85%
- IC50 [39]: 1 to 10 µM
